In US20250295686A1, “COMBINATION DECITABINE AND MPS1 INHIBITOR THERAPY TO PRIME CANCER IMMUNOGENICITY” (Dana-Farber Cancer Institute, Inc., priority 2021, published 2025):
“Also recorded” adds a separate entry of the source.

Assays:
Type in all cases: cell-based, human
[1] = test system: STING pathway; test: Screening of DNA-damaging agents: CXCL10 / IFN-β ELISA in conditioned medium of H1944 cells after pulse treatment
Description: (§1) Due to their particular hypersensitivity, H1944 cells were utilized as a model system in which to conduct an unbiased screen of cytotoxic chemotherapies or targeted DNA-damaging agents for their ability to upregulate endogenous 2′3′-cGAMP production following pulse treatment, including cGAS-deficient H2122 cells as a counter-screen (FIGS. 3A and 3B). […] Additionally, hydroxyurea or nocodazole were included as controls to induce S-phase or M-phase cell cycle arrest. The IC50 was identified for each compound for cell viability in H1944 cells, and this concentration was utilized for the screen (FIG. 4A and Table 1). It was shown that each agent induced cellular cytotoxicity and/or DNA-damage response at this concentration, as measured by the induction of propidium iodide positive cells, cleaved PARP fragments, or histone TH2A.X expression (FIGS. 4B and 4C).
(§2) Human IFN-β (Thermo Fisher Scientific, Cat. #414101), human CXCL10 (R&D systems, Cat. #DIP100), mouse CXCL10 (R&D systems, Cat. #DY466), and 2′3′-cGAMP (Cayman Chemical, Cat. #501700) ELISAs were performed according to the manufacturer's instructions. Conditioned media from each cell lines was collected after 24 hour culture. Values represent the average of four replicates from at least two independent experiments (biological replicates).

[2] = test system: KL NSCLC cell lines; test: CXCL10 ELISA after exogenous CDN exposure, KL NSCLC cell lines; details: 24 hours
Description: Treatment with 2′3′-cGAMP or ADU-S100 was utilized to examine the sensitivity of KP or KL NSCLC cell lines to exogenous CDN exposure. […] KL cell response to extracellular CDNs was still modest as compared with endothelial cells (HUVEC) or monocytic THP-1 cells, which also have different membrane permeabilities (FIG. 2C) (Cordova et al., 2021; Luteijn et al., 2019; Ritchie et al., 2019).
as §2

[3] = test system: THP1 cells; test: STING pathway activation (CXCL10 ELISA, immunoblot) in PMA-differentiated macrophage-like THP1 cells; details: 200 nM CFI-402257 screening schedule or 10 μM ADU-S100 24 hours
Description: Based on these observations, MPS1 inhibition might also induce micronuclei more efficiently in proliferating cancer cells as compared with non-genomically altered, non-proliferative cells in the TME such as immune cells and endothelial cells.
as §2
Cells were lysed in RIPA buffer containing 1× protease inhibitors (Roche, Cat #11-836-145-001) and phosphatase inhibitors (50 mmol/L NaF and 100 mmol/L Na3VO4). […] Imaging of blots and quantitation of bands was performed using the LICOR Odyssey system, or LAS-3000 (Fujifilm).

[4] = test system: H1944 cells; test: Quantification of micronucleus formation; details: 48-hour pulse treatment schedule, 200 nM CFI-402257, 5 nM docetaxel, 200 nM barasertib
Description: MPS1 is a regulator of the spindle assembly checkpoint (SAC), and MPS1 inhibition in other contexts is known to facilitate massive chromosome missegregation (London and Biggins, 2014). This effect could therefore be related to the formation of micronuclei, known activators of cGAS-STING signaling generated by mitotic slippage and subsequent progression into G1 (Mackenzie et al., 2017). […] Furthermore, induction of CXCL10 mRNA expression in H1944 cells directly correlated with the number of micronuclei induced by these DNA-damaging agents, with CFI-402257 representing the clear outlier (FIG. 5C). Additionally, Lamin B2 over-expression, which is sufficient to inhibit micronuclei disruption (Hatch et al., 2013) and could protect against cGAS recognition, attenuated CXCL10 secretion induced by pulse treatment with MPS1 inhibitor (FIGS. 6A and 6B).
Cells were plated onto chamber slides (CellTreat, Cat #229168), and treated with DNA-damaging agents for 48 hours. […] Z-stack images were subjected to maximum projection followed by quantitative analysis using CellSens. All samples were imaged and analyzed with the same setting throughout the experiments. The number of micronuclei were counted from three different fields for each sample. […] Slides were imaged with Zeiss LSM 880 confocal microscopy, and colocalization was determined using ImageJ.

[5] = test system: H1944 cells; test: Cell viability assay to determine an IC50 (CellTiter-Glo); details: Homo sapiens, NCI-H1944, 72 hours with drug
Description: as §1
3000 cells were plated onto 96-well plates, and then cultured for 72 hours in the presence of each DNA-damaging agent at the indicated concentration. Values of CellTiter-Glo Luminescent Cell Viability assay (Promega) […] were normalized to vehicle treated cells. Plates were read on a Tecan Infinite M200 Pro plate reader and analysis was performed using Prism7 (GraphPad Software). All conditions were tested in triplicate.

| Compound | STING signaling activation in H1944 cells ([1]; 200 nM CFI-402257 screening schedule vs 10 μM ADU-S100 24 hours) | CXCL10 secretion, STING^Absent KL cell lines ([2]; A549, H23, A427, up to 100 μM) | CXCL10 secretion, STING^Low KL cells ([2]; H1944, H2122, H647, H1355, 3.125-100 μM) | STING pathway activation in macrophage-like THP1 cells [3] | CXCL10 secretion in H1944 cells following 48-hour pulse treatment ([1]; H1944 cells, IC50-based screening concentration, ELISA of conditioned medium) | CXCL10 induction at lower concentrations ([1]; H1944 cells, concentrations below the IC50, pulse treatment) | micronuclei formation [4] | IC50 [5] [nM] |
| --- | --- | --- | --- | --- | --- | --- | --- | --- |
| Nc1ncnc2c1ncn2[C@@H]1O[C@@H]2COP(=O)([S-])O[C@@H]3[C@H](O)[C@@H](COP([O-])(=S)O[C@H]2[C@H]1O)O[C@H]3n1cnc2c(N)ncnc21.[Na+].[Na+] (some centres unmarked) [ADU-S100] | negligible impact | failed to respond | dose-dependent manner | high sensitivity | – | – | – | – |
| CC(=O)O[C@@]12CO[C@@H]1C[C@H](O)[C@@]1(C)C(=O)[C@H](O)C3=C(C)[C@@H](OC(=O)[C@H](O)[C@@H](NC(=O)OC(C)(C)C)c4ccccc4)C[C@@](O)([C@@H](OC(=O)c4ccccc4)[C@H]21)C3(C)C [docetaxel] | – | – | – | – | induce significant CXCL10 secretion; also recorded: partially activated CXCL10 production | not upregulated | generated micronuclei | 3.97 |
